Reference: patent US4962109A, “Insecticidally and acaricidally active pyrimidine esters and intermediates therefor” (Imperial Chemical Industries PLC, priority 1985, dated 1990)

Key:
Type in all cases: in vivo
[1] = tested on: Tetranychus urticae (spider mites - adult); experiment: Contact test on spider mites - adult (TUa), French bean leaf, mortality; conditions: 72 h, 500 ppm, contact, 3 days, read-out: TUa grading of mortality
In short: (§1)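 Pests were supported on a host plant or food medium, and either or both were treated with preparations at 500, 250 or 100 ppm by weight. Mortality was assessed one to three days afterwards and banded into three grades, from A (80-100%) down to C (under 50%).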

Myzus persicae (aphids) = experiment: Contact test on aphids (MP), Chinese Cabbage leaf, mortality; conditions: 72 h, 500 ppm, contact, 3 days, read-out: MP grading of mortality
In short: as §1

[2] = tested on: Blattella germanica (cockroach nymphs); experiment: Contact test on cockroach nymphs (BG/C), Plastic pot, mortality; conditions: 48 h, 500 ppm, contact, 2 days, read-out: BG/C grading of mortality
In short: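 Cockroach nymphs and/or their medium were treated with aqueous preparations at 500, 250 or 100 ppm (acetone solution diluted in water with 0.01% Lissapol NX wetting agent). Mortality or knockdown was assessed typically 1–3 days later and graded A (80–100%), B (50–79%) or C (<50%).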

[3] = tested on: Nephotettix cincticeps (green leaf hopper - nymphs); experiment: Contact test on green leaf hopper nymphs (NC), Rice plant, mortality; conditions: 48 h, 500 ppm, contact, 2 days, read-out: NC grading of mortality
In short: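 Product dissolved in acetone, diluted in water with 0.01% wetting agent to 500, 250 or 100 ppm; nymphs and/or host rice plants treated. Mortality or knockdown assessed 1–3 days later, graded A (80-100%), B (50-79%), C (<50%).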

[4] = tested on: Tetranychus urticae (spider mites - ova); experiment: Contact test on spider mites - ova (TUe), French bean leaf, mortality; conditions: 144 h, 500 ppm, contact, 6 days, read-out: TUe grading of mortality
In short: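 Graded read-out: A 80-100%, B 50-79%, C below 50% mortality or knockdown, assessed usually 1-3 days post-treatment. Liquid preparations at 500, 250 or 100 ppm by weight, from acetone solution diluted in water with 0.01% wetting agent, applied to pests and/or their host plant or food medium.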

[5] = tested on: Diabrotica balteata (rootworm larvae); experiment: Residual test on rootworm larvae (DB), Filter paper/maize seed, mortality; conditions: 48 h, 500 ppm, residual, 2 days, read-out: DB grading of mortality
In short: as §1

[6] = tested on: Musca domestica (houseflies - adults); experiment: Contact test on houseflies - adults (MD), Cotton wool/sugar, mortality; conditions: 72 h, 500 ppm, contact, 3 days, read-out: MD grading of mortality
In short: as §1

[7] = tested on: Heliothis virescens (tobacco budworm - larvae); experiment: Residual test on tobacco budworm larvae (HV), Cotton leaf, mortality; conditions: 48 h, read-out: HV grading of mortality
In short: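 Product in acetone diluted with water containing 0.01% Lissapol NX, at 500, 250 or 100 ppm; pests and/or host medium (here cotton leaf) treated. Mortality scored one to three days later, graded A (80-100%), B (50-79%), C (<50%).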

[8] = tested on: Spodoptera exigua (lesser army worm - larvae); experiment: Residual test on lesser army worm larvae (SP), Cotton leaf, mortality; conditions: 48 h, 500 ppm, residual, 2 days, read-out: SP grading of mortality
In short: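 Product dissolved in acetone and diluted in water with 0.01% wetting agent to 500, 250 or 100 ppm; larvae and/or cotton leaf host treated. Mortality or knockdown scored one to three days later and graded A (80-100%), B (50-79%) or C (<50%).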

[9] = tested on: Musca domestica (houseflies - adults); experiment: Knockdown test on houseflies - adults (MD/KD), Cotton wool/sugar; conditions: 500 ppm, 4 hours, read-out: MD/KD grading of knockdown
In short: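 Adult houseflies exposed to the compound at 500, 250 or 100 ppm in acetone/water with 0.01% wetting agent, on a cotton wool/sugar medium. Knockdown and mortality assessed, graded A (80-100%), B (50-79%) or C (<50%).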

| Compound | mortality at 500 ppm [1] [%] | mortality at 500 ppm (Myzus persicae (aphids)) [%] | mortality at 500 ppm [2] [%] | mortality at 500 ppm [3] [%] | mortality at 500 ppm [4] [%] | mortality at 500 ppm [5] [%] | mortality at 500 ppm [6] [%] | mortality at 500 ppm [7] [%] | mortality at 500 ppm [8] [%] | pest or weed control at 500 ppm [9] [%] |
| --- | --- | --- | --- | --- | --- | --- | --- | --- | --- | --- |
| CC(C)c1ncc([C@H](C(=O)O[C@H](C)c2cccc(Oc3ccccc3)n2)C(C)(C)C)cn1 (racemic) [Compound 74, (RS)-1-(6-phenoxypyridin-2-yl)ethyl (RS)-2-[2-(1-methylethyl)pyrimidin-5-yl]-3,3-dimethylbutanoate] | 80 to 100 | 50 to 79 | < 50 | 80 to 100 | < 50 | < 50 | 50 to 79 | 80 to 100 | 80 to 100 | < 50 |
| CC(C)(C)c1ncc([C@H](C(=O)O[C@H](c2cccc(Oc3ccccc3)n2)C(F)(F)F)C(C)(C)C)cn1 (racemic) [Compound 32, (RS)-1-(6-phenoxypyrid-2-yl)-2,2,2-trifluoroethyl (RS)-2-[2-(1,1-dimethylethyl)pyrimidin-5-yl]-3,3-dimethylbutanoate] | 80 to 100 | 80 to 100 | < 50 | 80 to 100 | 50 to 79 | 80 to 100 | 80 to 100 | 80 to 100 | 80 to 100 | 80 to 100 |
| COCc1c(F)c(F)c(COC(=O)C(c2cnc(C3CC3)nc2)C(C)(C)C)c(F)c1F (racemic) [Compound 135, 2,3,5,6-tetrafluoro-4-(methoxymethyl)benzyl (RS)-2-(2-cyclopropylpyrimidin-5-yl)-3,3-dimethylbutanoate] | 80 to 100 | 80 to 100 | < 50 | 80 to 100 | 80 to 100 | 80 to 100 | 80 to 100 | < 50 | 80 to 100 | 80 to 100 |
| CCOCc1c(F)c(F)c(COC(=O)C(c2cnc(C(C)(C)C)nc2)C(C)(C)C)c(OC)c1F (racemic) [Compound 187, 2,3,5-trifluoro-6-methoxy-4-(ethoxymethyl)benzyl (RS)-2-[2-(1,1-dimethylethyl)pyrimidin-5-yl]-3,3-dimethylbutanoate] | 80 to 100 | 80 to 100 | < 50 | 80 to 100 | < 50 | < 50 | 50 to 79 | 50 to 79 | 80 to 100 | 80 to 100 |
| CCOCc1c(F)c(F)c(COC(=O)C(c2cnc(C(C)(C)C)nc2)C(C)(C)C)c(OCC)c1F (racemic) [Compound 188, 2,3,5-trifluoro-6-ethoxy-4-(ethoxymethyl)benzyl (RS)-2-[2-(1,1-dimethylethyl)pyrimidin-5-yl]-3,3-dimethylbutanoate] | 80 to 100 | 80 to 100 | < 50 | 50 to 79 | < 50 | < 50 | < 50 | 50 to 79 | 80 to 100 | < 50 |
| COCc1c(F)c(F)c(CSC(=O)C(c2cnc(C(C)(C)C)nc2)C(C)(C)C)c(F)c1F (racemic) [Compound 195, 4-(methoxymethyl)-2,3,5,6-tetrafluorobenzyl (RS)-2-[2-(1,1-dimethylethyl)pyrimidin-5-yl]-3,3-dimethylbutanthioate] | 80 to 100 | 80 to 100 | < 50 | 80 to 100 | 80 to 100 | 80 to 100 | < 50 | 80 to 100 | 80 to 100 | < 50 |
| Cc1ncc(C(C(=O)OC(C)c2cccc(Oc3ccccc3)n2)C(C)(C)C)cn1 (racemic) [Compound 205, RS-1-(6-phenoxypyrid-2-yl)ethyl (RS)-2-(2-methylpyrimidin-5-yl)-3,3-dimethylbutanoate] | 80 to 100 | 80 to 100 | < 50 | 80 to 100 | < 50 | < 50 | < 50 | 80 to 100 | 80 to 100 | < 50 |
| CCC(C)(C)c1ncc([C@H](C(=O)O[C@H](C)c2cccc(Oc3ccccc3)n2)C(C)(C)C)cn1 (racemic) [Compound 57, (RS)-1-(6-phenoxypyrid-2-yl)ethyl (RS)-2-[2-(1,1-dimethylpropyl)pyrimidin-5-yl]-3,3dimethylbutanoate] | 80 to 100 | 80 to 100 | < 50 | 80 to 100 | < 50 | < 50 | 80 to 100 | 80 to 100 | 80 to 100 | 80 to 100 |
| CC(C)(C)c1ncc(C(C(=O)OCc2c(F)c(F)c(CN3CCCCC3)c(F)c2F)C(C)(C)C)cn1 (racemic) [Compound 177, 4-[(piperidin-1-yl)methyl]-2,3,5,6-tetrafluorobenzyl (RS)-2-(2-(1,1-dimethylethyl)pyrimidin-5-yl)-3,3-dimethylbutanoate] | 80 to 100 | 80 to 100 | < 50 | 80 to 100 | < 50 | < 50 | < 50 | < 50 | 80 to 100 | 80 to 100 |
| CC(C)(C)c1ncc(C(C(=O)OCc2c(F)c(F)c(COc3ccccc3)c(F)c2F)C(C)(C)C)cn1 (racemic) [Compound 192, 2,3,5,6-tetrafluoro-4-(phenoxymethyl)benzyl (RS)-2-[2-(1,1-dimethylethyl)pyrimidin-5-yl]-3,3-dimethylbutanoate] | 80 to 100 | 50 to 79 | < 50 | < 50 | < 50 | < 50 | < 50 | < 50 | 80 to 100 | < 50 |
| CC(C)c1ncc(C(C(=O)OCc2ccc(F)c(Oc3ccccc3)c2)C(C)(C)C)cn1 (racemic) [Compound 197, 4-fluoro-3-phenoxybenzyl (RS)-2-[2-(1-methylethyl)pyrimidin-5-yl]-3,3-dimethylbutanoate] | 80 to 100 | 80 to 100 | < 50 | 80 to 100 | 80 to 100 | 80 to 100 | < 50 | 80 to 100 | 80 to 100 | 80 to 100 |
| C[C@@H](OC(=O)[C@@H](c1cnc(C(C)(C)C)nc1)C(C)(C)C)c1cccc(Oc2ccc(Cl)cc2)n1 (racemic) [Compound 181, (RS)-1-[6-(4-chlorophenoxy)pyrid-2-yl]ethyl (RS)-2-[2-(1,1-dimethylethyl)pyrimidin-5-yl]-3,3-dimethylbutanoate] | 80 to 100 | 80 to 100 | < 50 | 80 to 100 | < 50 | 80 to 100 | 80 to 100 | 80 to 100 | 80 to 100 | 80 to 100 |
